Experimental data taken from patent US9630978B2, “Polycyclic-carbamoylpyridone compounds and their pharmaceutical use” (Gilead Sciences, Inc., priority 2015, dated 2017).
Where two headings read alike, the source gives them in different places.

Tests used:
Type in all cases: cell-based
[1] = Cytotoxicity (CC50) in MT4 cells within the antiviral assay; conditions: human, MT4 cells (mock-infected); MT4 cells, 5 days incubation, CellTiter-Glo; average over assays
Method: (§1) For the antiviral assay utilizing MT4 cells, 0.4 μL of 189X test concentration of 3-fold serially diluted compound in DMSO was added to 40 μl of cell growth medium (RPMI 1640, 10% FBS, 1% penicillin/streptomycin, 1% L-Glutamine, 1% HEPES) in each well of 384-well assay plates (10 concentrations) in quadruplicate.
(§2) 1 mL aliquots of 2×10^6 MT4 cells are pre-infected for 1 and 3 hours respectively at 37° C. with 25 μL (MT4) or of either cell growth medium (mock-infected) or a fresh 1:250 dilution of an HIV-IIIb concentrated ABI stock (0.004 m.o.i. for MT4 cells). Infected and uninfected cells are diluted in cell growth medium and 35 μL of 2000 (for MT4) cells is added to each well of the assay plates.
(§3) Assay plates were then incubated in a 37° C. incubator. After 5 days of incubation, 25 μL of 2× concentrated CellTiter-Glo™ Reagent (catalog # G7573, Promega Biosciences, Inc., Madison, Wis.) was added to each well of the assay plate. Cell lysis was carried out by incubating at room temperature for 2-3 minutes, and then chemiluminescence was read using the Envision reader (PerkinElmer).

HIV-IIIb = assay: Antiviral assay in MT4 cells; conditions: MT4 cells infected with HIV-IIIb (0.004 m.o.i.), 5 days incubation, CellTiter-Glo, average over assays
Method: as §1, §2, §3

MT4 cells = assay: Cytotoxicity (CC50) in MT4 cells within the antiviral assay
Method: as §1, §2, §3

[2] = Human immunodeficiency virus 1, IIIB, MT4, 120 h
[3] = MT4 cells, 5 days incubation, CellTiter-Glo, average over assays, read-out: CC50

EC50 (HIV-IIIb; [2])	EC50 (HIV-IIIb)	Compound	CC50 at 5 days [1]	CC50 (MT4 cells; [3])	CC50 (MT4 cells)
4.43 nM	–	O=C(NCc1ccc(F)c(Cl)c1F)c1cn2c(c(O)c1=O)C(=O)N1CCO[C@]13CCCC[C@H]23 (racemic) [Compound 96]	1370 nM	–	–
1.2 nM	–	O=C(NCc1ccc(F)c(Cl)c1F)c1cn2c(c(O)c1=O)C(=O)N1CCS[C@]13COCC[C@H]23 (racemic) [Compound 103]	–	10800 nM	–
–	4.64 nM	O=C(NCc1ccc(F)c(Cl)c1F)c1cn2c(c(O)c1=O)C(=O)N1CCCC[C@]13CCOC[C@H]23 [Compound 15]	–	–	7520 nM
–	2.63 nM	O=C(NCc1ccc(F)c(Cl)c1F)c1cn2c(c(O)c1=O)C(=O)N1CCCC[C@]13COCC[C@H]23 [Compound 26]	–	–	22100 nM
2.59 nM	–	O=C(NCc1c(F)cc(F)cc1F)c1cn2c(c(O)c1=O)C(=O)N1CC=CC[C@]13COCC[C@H]23 [Compound 30]	33100 nM	–	–
1.94 nM	–	O=C(NCc1c(F)cc(F)cc1F)c1cn2c(c(O)c1=O)C(=O)N1CCCC[C@]13COCC[C@H]23 [Compound 31]	–	33600 nM	–
2.38 nM	–	O=C(NCc1ccc(F)c(Cl)c1F)c1cn2c(c(O)c1=O)C(=O)N1CC=CC[C@]13COC[C@H]23 [Compound 41]	9190 nM	–	–
3.49 nM	–	O=C(NCc1ccc(F)c(Cl)c1F)c1cn2c(c(O)c1=O)C(=O)N1CCCC[C@]13COC[C@H]23 [Compound 42]	7480 nM	–	–
2.53 nM	–	C[C@@H]1CO[C@@]23CCC[C@@H]2n2cc(C(=O)NCc4c(F)cc(F)cc4F)c(=O)c(O)c2C(=O)N13 [Compound 66]	6920 nM	–	–
4.7 nM	–	C[C@H]1CO[C@]23CCC[C@H]2n2cc(C(=O)NCc4c(F)cc(F)cc4F)c(=O)c(O)c2C(=O)N13 [Compound 70]	16400 nM	–	–

Further lines, the molecule ahead of its results:

Compound	EC50 (HIV-IIIb; [2])	EC50 (HIV-IIIb)	CC50 at 5 days [1]	CC50 (MT4 cells; [3])	CC50 (MT4 cells)
C[C@@H]1CN2C(=O)c3c(O)c(=O)c(C(=O)NCc4ccc(F)c(Cl)c4F)cn3[C@@H]3CCC[C@@]32O1 (single isomer, unassigned) [Compound 74]	3.17 nM	–	5770 nM	–	–
O=C(NCc1ccc(F)c(Cl)c1F)c1cn2c(c(O)c1=O)C(=O)N1CC=CC[C@]13CCOC[C@H]23 [Compound 14]	4.62 nM	–	–	8020 nM	–
O=C(NCc1ccc(F)c(Cl)c1F)c1cn2c(c(O)c1=O)C(=O)N1CC=CC[C@]13COCC[C@H]23 [Compound 25]	–	2.42 nM	–	22100 nM	–
C[C@@H]1CO[C@@]23CCC[C@@H]2n2cc(C(=O)NCc4ccc(F)c(Cl)c4F)c(=O)c(O)c2C(=O)N13 [Compound 65]	4.13 nM	–	5530 nM	–	–
C[C@H]1CO[C@]23CCC[C@H]2n2cc(C(=O)NCc4ccc(F)c(Cl)c4F)c(=O)c(O)c2C(=O)N13 [Compound 69]	8.02 nM	–	15600 nM	–	–
C[C@@H]1CN2C(=O)c3c(O)c(=O)c(C(=O)NCc4ccc(F)c(Cl)c4F)cn3[C@H]3CCC[C@]32O1 [Compound 73]	–	3.83 nM	–	–	3320 nM
C[C@@H]1CCO[C@@]23CCC[C@@H]2n2cc(C(=O)NCc4ccc(F)c(Cl)c4F)c(=O)c(O)c2C(=O)N13 [Compound 77]	7.02 nM	–	7270 nM	–	–
C[C@H]1CCO[C@]23CCC[C@H]2n2cc(C(=O)NCc4ccc(F)c(Cl)c4F)c(=O)c(O)c2C(=O)N13 [Compound 80]	11.8 nM	–	–	17500 nM	–
C[C@@H]1CO[C@@]23CCOC[C@@H]2n2cc(C(=O)NCc4ccc(F)c(Cl)c4F)c(=O)c(O)c2C(=O)N13 [Compound 94]	–	1.88 nM	3990 nM	–	–
C[C@@H]1CO[C@@]23CCOC[C@@H]2n2cc(C(=O)NCc4ccc(F)c(Cl)c4F)c(=O)c(O)c2C(=O)N13 [Compound 100]	1.82 nM	–	–	7530 nM	–
